In patent US20110119780A1, “SCREENING FOR NON-GENOTOXIC CARCINOGENS” (priority 2008, published 2011):

Experiments:
[1] = tested on: hepatocellular hypertrophy; test: H&E staining of liver sections, Chlordane-treated mice; type: in vivo
Excerpt: A 20× objective lens was used to capture the images.

[2] = Pentobarbitone sleeping test; type: in vivo, mice; details: male, single intraperitoneal dose 25 mg/kg
Description: In this experiment, the activity of these transcription factors in combination was determined by measuring the barbiturate induced sleeping time. Sleeping time has been known for many years to be directly proportional to the hepatic cytochrome P450 activity and this activity can be at least in part ascribed to the P450 levels in the liver determined by CAR and PXR function.
Mice were given a single intraperitoneal dose of Narcoren (sodium pentobarbitone; purchased via a Veterinary Consultant; distributed by Merial GmbH, Germany) at 25 mg/kg of body weight. The time taken for the mice to lose, and subsequently to regain, their righting reflex was measured.

| Compound | hypertrophy on H&E staining ([1]; PXRKO/CARKO mice) | liver finding on H&E staining ([1]; WT and hPXR_old/hCAR mice) | Sleeping time ([2]; PXR/CAR hum (double humanised) mouse) | Sleeping time ([2]; Wt mouse) |
| --- | --- | --- | --- | --- |
| ClC1=C(Cl)C2(Cl)C3C(Cl)C(Cl)CC3C1(Cl)C2(Cl)Cl (stereo not shown) [Chlordane] | not | hypertrophy | – | – |
| CCCC(C)C1(CC)C(=O)NC(=O)NC1=O (stereo not shown) [pentobarbitone, sodium pentobarbitone] | – | – | 34 min | 21 min |
